Experimental data published in publication PMC7667655, “Targeted Covalent Inhibition of Plasmodium FK506 Binding Protein 35” (ACS Medicinal Chemistry Letters, 2020).
pIC50: −log10 of the molar value.

How the values were obtained:
[1] = molecular target: T1, FKBP12 (Homo sapiens, UniProt P62942); assay: Fluorescence polarization competition, FKBP12; assay type: binding
T1 construct: 6His-SUMO (N, cleaved yes); made in house; host or cells: E. coli (identical protocol to FBD35, BL21 DE3)

[2] = molecular target: T2, FBD35 (PfFKBP35 binding domain) (Plasmodium falciparum, UniProt Q8I4V8); assay: Differential scanning calorimetry, FBD35; details: read-out: FBD35 ΔTM
T2 construct: FKBP35 Q5 -A128; 6His-SUMO (N, cleaved yes); made in house; host or cells: E. coli BL21 DE3

[3] = molecular target: T3, nLuc-tagged FKBP12 (Homo sapiens, UniProt P62942); assay: NanoBRET cellular target engagement, nLuc-FKBP12; assay type: cell-based
T3 construct: full length Plasmodium falciparum FKBP35 and human FKBP12 DNA were; expressed in transfected cells

[4] = Plasma stability assay, mouse; assay type: in vitro ADME; details: percent remaining, 1 µM, 37 °C, 5 hours
Description: (§1) In 96-well round-bottom plates, sorbitol -synchronized cultures of ring-stage NF54 P. falciparum parasites were established in triplicate and treated with varying concentrations of the inhibitors (25-0.0038 μM) serially diluted in complete medium. Parasite proliferation rates were analyzed after 72 h using the Renilla-Glo Luciferase Assay, and luminescence was measured using the GloMax® Discover Microplate Reader. EC 50 values were obtained from corrected dose-response curves using GraphPad Prism (version 5; GraphPad Software). Data represent the mean % luminescence relative to 5% DMSO-treated (vehicle, 100% growth) and 100 nM chloroquine-treated (no growth) controls.
(§2) In black, clear-bottom 96-well plates (No. 3904 Corning Life Sciences), HEK293T cells were plated at 2x10^5 cells/mL in DMEM high glucose, pyruvate media (ThermoFisher Scientific, cat. 11995073) supplemented with 10% FBS and 1% pen -strep (100 μL final volume). Cells were incubated overnight at 37°C, 5% CO2. Using a Tecan D300e digital dispenser, cells were dosed in triplicate […]
(§3) concentration, 100 mM stock in DMSO) and Carfilzomib (10 µM to 4.6 nM final concentration, 10 mM stock in DMSO) normalizing DMSO to 0.25%. Cells were then incubated at 37 °C, 5% CO2 for 72 hours. Following incubation, cells were treated with 70 µL CellTiter-Glo® Luminescent Cell Viability Assay Reagent (Promega, cat. G7570) and incubated in the dark at room temperature for 30 minutes. Plates were read using an EnVision Multimode Plate Reader (PerkinElmer). Cell viability data was normalized to DMSO controls and analyzed in GraphPad Prism 8 by fitting the data to “[Inhibitor] vs. normalized response – variable slope” model to obtain the curves.
Each compound was prepared in duplicate at 1 µM final concentration (0.2% DMSO) in human or mouse plasma (Aldrich). Samples were incubated at 37 °C for 5 hours with mixing at 350 rpm on an orbital shaker. Aliquots of each sample were taken at time zero and following 5 hours. Each sample was quenched by adding acetonitrile in a 3:1 ratio and further diluting with 50 µl of PBS.
After quenching, samples were centrifuged to pellet precipitated partic ulates and an aliquot of supernatant was diluted 1:1 with water. The resulting solution was analyzed by UPLC -MS/MS with compounds detected by MRM detection on a triple quadrupole mass spectrometer. The ratio of compound peak areas at 0 and 5 hours were use d to calculate the percent remaining.

[5] = Cell viability assay (CellTiter-Glo); assay type: cell-based; details: human; HEK293T, 72 hour treatment; read-out: IC50 cell viability
Description: as §1, §2, §3
Each compound was prepared in duplicate at 1 µM final concentration (0.2% DMSO) in human or mouse plasma (Aldrich). […]
After quenching, samples were centrifuged to pellet precipitated partic ulates and an aliquot of supernatant was diluted 1:1 with water. The resulting solution was analyzed by UPLC -MS/MS with compounds detected by MRM detection on a triple quadrupole mass spectrometer. […]

T1 sequence (P62942 whole entry): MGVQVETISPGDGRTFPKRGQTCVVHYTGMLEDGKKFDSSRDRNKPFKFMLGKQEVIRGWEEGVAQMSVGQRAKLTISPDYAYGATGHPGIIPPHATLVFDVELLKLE
T3 sequence (P62942 whole entry): as above
T2 sequence (Q8I4V8 5-128): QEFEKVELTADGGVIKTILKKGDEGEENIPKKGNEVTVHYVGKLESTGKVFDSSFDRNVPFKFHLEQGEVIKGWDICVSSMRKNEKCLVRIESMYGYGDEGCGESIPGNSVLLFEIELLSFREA

| SMILES | pIC50 [1] | ΔTm at 40 µM [2] [°C] | pIC50 [3] | Plasma Stability (mouse) [4] [%] | IC50 at 72 h [5] [nM] |
| --- | --- | --- | --- | --- | --- |
| CCC(=O)Nc1cccc([C@@H](CCc2ccc(OC)c(OC)c2)OC(=O)[C@@H]2CCCCN2C(=O)C(=O)C(C)(C)CC)c1 [1b] | 7.24 | 2.8 | 6.50 | 18 | – |
| C=CC(=O)Nc1cccc([C@@H](CCc2ccc(OC)c(OC)c2)OC(=O)[C@@H]2CCCCN2C(=O)C(=O)C(C)(C)CC)c1 [1a] | 6.88 | 13.4 | 6.32 | 48 | – |
| C=CC(=O)Nc1ccccc1[C@@H](CCc1ccc(OC)c(OC)c1)OC(=O)[C@@H]1CCCCN1C(=O)C(=O)C(C)(C)CC [1c] | 6.37 | 9.6 | – | 31 | 75000 |
| C=CC(=O)OCC(C)(C)C(=O)C(=O)N1CCCC[C@H]1C(=O)O[C@H](CCc1ccc(OC)c(OC)c1)c1ccccc1 [2c] | 6.78 | 14.5 | 6.22 | 0 | – |
